Experiments:
[1] = literature [2, 3]; cited from earlier work
[2] = Temperature dependence of Stokes luminescence intensity of dye in solution; assay type: physicochemical; conditions: for temperature-sensitive properties of Stokes luminescence: 10 μM dye, emission spectra at different temperatures
Method: Concentration of dye is 10 μM, and solvent is 150 mM KCl solution, pH 7.5; (d) Stokes emission spectra (excited at 530 nm) of 10 μM RhBME (dissolved in 150 mM KCl solution at pH 7.5) at different temperatures (from bottom to top, 45, 35, 25, 15, 5[…] respectively), and Stokes luminescence intensity is normalized against peak at 25[…].

[3] = Temperature dependence of anti-Stokes luminescence intensity of dye in solution; assay type: physicochemical; conditions: 10 μM in 150 mM KCl pH 7.5, excited at 633 nm, 5-45 degrees
Method: Concentration of dye is 10 μM, and solvent is 150 mM KCl solution, pH 7.5; (d) anti-Stokes emission spectra (excited at 633 nm) of 10 μM Rh101ME (dissolved in 150 mM KCl solution at pH 7.5) at different temperatures (from top to bottom, 45, 35, 25, 15, 5[…] respectively), and anti-Stokes luminescence intensity is normalized against peak at 25[…].
From the spectrogram of Rh101 and derivatives thereof (FIG. 1a), it can be seen that there is no significant difference in spectroscopic characteristics between the compound of formula II (Rh101AM) or the compound of formula IV (Rh101ME) and Rh101.

[4] = literature [2, 3]; cited from earlier work; remark: listed apart in the source

| Molecule | temperature-sensitive properties of Stokes luminescence [2] | Stokes luminescence intensity vs temperature [2] | further results |
| --- | --- | --- | --- |
| O=C(O)c1ccccc1C1=c2cc3c4c(c2Oc2c1cc1c5c2CCCN5CCC1)CCC[N+]=4CCC3 [Rh101, rhodamine 101] | does not possess temperature-sensitive properties |  | Anti-Stokes emission intensity vs temperature [1]: enhanced as the temperature increases; anti-Stokes luminescence intensity vs temperature [3]: increases as the temperature increases |
| CCN(CC)c1ccc2c(-c3ccccc3C(=O)OC)c3ccc(N(CC)CC)cc3[o+]c2c1.[Cl-] [RhBME] |  | decreases as the temperature increases |  |
| CC(=O)OCOC(=O)c1ccccc1C1=c2cc3c4c(c2Oc2c1cc1c5c2CCCN5CCC1)CCC[N+]=4CCC3 [Rh101AM] |  | does not substantially change as the temperature changes |  |
| CCN(CC)c1ccc2c(-c3ccccc3C(=O)OCOC(C)=O)c3ccc(=[N+](CC)CC)cc-3oc2c1 [RhBAM] |  | decreases as the temperature increases |  |
| CCN(CC)c1ccc2c(-c3ccccc3C(=O)OCc3ccc(C(=O)Nc4cc5cccnc5c5ncccc45)cc3)c3ccc(=[N+](CC)CC)cc-3oc2c1 [RPA, Rhodamine B-[(1,10-phenanthrolin-5-yl)aminocarbonyl]benzyl ester] | possess temperature-sensitive properties |  |  |
| tetramethylrhodamine methyl ester [TMRM] | possess temperature-sensitive properties |  |  |
| CCN(CC)c1ccc2c(-c3ccccc3C(=O)O)c3ccc(=[N+](CC)CC)cc-3oc2c1 [RhB, Rhodamine B] |  |  | Stokes emission intensity vs temperature [4]: decreased as the temperature increases |
| CCCCCCCCCCCCCCCCOC(=O)c1ccccc1-c1c2ccc(=[N+](CC)CC)cc-2oc2cc(N(CC)CC)ccc12 [RhB-C16] | possesses temperature-sensitive properties |  |  |
| N=c1ccc2c(-c3ccccc3C(=O)O)c3ccc(N)cc3oc-2c1 [Rh110] | does not possess temperature-sensitive properties |  |  |
| N#CC1=c2cc3c4c(c2Oc2c1cc1c5c2CCCN5CCC1)CCC[N+]=4CCC3 [Rh800] | does not possess temperature-sensitive properties at a wavelength of less than 700 nm |  |  |

Source: patent US20160376247A1, “NOVEL TEMPERATURE-SENSITIVE FLUORESCENT COMPOUND AND APPLICATION THEREOF” (SHANGHAI INSTITUTES FOR BIOLOGICAL SCIENCES, CHINESE …, priority 2013, published 2016)
